Results: patent US6114310A, “Efflux pump inhibitors” (priority 1998, dated 2000)

System: Pseudomonas aeruginosa PAM1001
Experiment: microbe, parasite or virus in culture
Assay type: cell-based
How it was run: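 Checkerboard broth microdilution (NCCLS) with the efflux pump inhibitor and levofloxacin, each diluted along one axis of the plate, in Mueller Hinton Broth. Inoculum 5×10^5 CFU/ml from early-log culture; incubation 20 h at 35° C. Growth read at 650 nm and visually.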

[1] = Table 1, EPI Conc. μg/ml (number not given; column between 10 and 40 μg/ml)
[2] = Table 2, EPI Conc. μg/ml (number not given; column between 10 and 40 μg/ml)
[3] = Table 3, EPI Conc. μg/ml (number not given; column between 10 and 40 μg/ml)
[4] = Table 4, EPI Conc. μg/ml (number not given; column between 10 and 40 μg/ml)

Measured: Levofloxacin MIC Against P. aeruginosa PAM1001 in Presence of Efflux Pump Inhibitor (EPI), Minimum Inhibitory Concentration

D-Lysyl-β-N-(Cyclohexylmethyl)alanine Quinoline-3-amide Trifluoroacetate [Example 18]
0.03 µg/mL: Table 3, EPI Conc. 40 μg/ml | [3]
4 µg/mL: Table 1, EPI Conc. 0 μg/ml | Table 1, EPI Conc. 0.625 μg/ml | Table 1, EPI Conc. 5 μg/ml | Table 1, EPI Conc. […] | Table 2, EPI Conc. 0 μg/ml | Table 2, EPI Conc. 0.625 μg/ml | Table 2, EPI Conc. 5 μg/ml | Table 2, EPI Conc. […] | Table 3, EPI Conc. 0 μg/ml | Table 3, EPI Conc. 0.625 μg/ml | Table 4, EPI Conc. 0 μg/ml | Table 4, EPI Conc. 0.625 μg/ml | Table 4, EPI Conc. […]
0.125 µg/mL: Table 2, EPI Conc. 40 μg/ml | [2] | [4]
1 µg/mL: Table 3, EPI Conc. 5 μg/ml
0.50 µg/mL: [1] | Table 3, EPI Conc. 10 μg/ml | Table 4, EPI Conc. 10 μg/ml
2 µg/mL: Table 1, EPI Conc. 10 μg/ml | Table 2, EPI Conc. 10 μg/ml | Table 4, EPI Conc. 5 μg/ml
0.25 µg/mL: Table 1, EPI Conc. 40 μg/ml | Table 4, EPI Conc. 40 μg/ml

D-Lysyl-β-N-(Ethylthioethyl)alanine 2-Naphthylamide Trifluoroacetate [Example 26]
4 µg/mL: Table 1, EPI Conc. 0 μg/ml | Table 1, EPI Conc. 0.625 μg/ml | Table 2, EPI Conc. 0 μg/ml | Table 2, EPI Conc. 0.625 μg/ml | Table 2, EPI Conc. […] | Table 3, EPI Conc. 0 μg/ml | Table 3, EPI Conc. 0.625 μg/ml | Table 4, EPI Conc. 0 μg/ml | Table 4, EPI Conc. 0.625 μg/ml | Table 4, EPI Conc. […]
1 µg/mL: Table 1, EPI Conc. 5 μg/ml | Table 4, EPI Conc. 5 μg/ml
0.06 µg/mL: Table 1, EPI Conc. 40 μg/ml | Table 2, EPI Conc. 40 μg/ml | Table 3, EPI Conc. 5 μg/ml
0.25 µg/mL: Table 4, EPI Conc. 10 μg/ml
0.125 µg/mL: Table 1, EPI Conc. 10 μg/ml | [1] | Table 2, EPI Conc. 10 μg/ml | [2] | [4]
2 µg/mL: Table 2, EPI Conc. 5 μg/ml
0.03 µg/mL: [3] | Table 4, EPI Conc. 40 μg/ml
0.015 µg/mL: Table 3, EPI Conc. 10 μg/ml

D-Lysyl-β-N-(Ethylthioethyl)alanine 2-Naphthylamide Trifluoroacetate [Example 25]
2 µg/mL: Table 3, EPI Conc. 5 μg/ml
0.25 µg/mL: Table 3, EPI Conc. 40 μg/ml
1 µg/mL: Table 1, EPI Conc. 5 μg/ml | Table 2, EPI Conc. 5 μg/ml | Table 3, EPI Conc. 10 μg/ml
0.50 µg/mL: [3]
0.125 µg/mL: Table 4, EPI Conc. 5 μg/ml | Table 4, EPI Conc. 40 μg/ml | [4]
4 µg/mL: Table 1, EPI Conc. 0 μg/ml | Table 1, EPI Conc. 0.625 μg/ml | Table 1, EPI Conc. […] | Table 2, EPI Conc. 0 μg/ml | Table 2, EPI Conc. 0.625 μg/ml | Table 3, EPI Conc. 0 μg/ml | Table 3, EPI Conc. 0.625 μg/ml | Table 3, EPI Conc. […] | Table 4, EPI Conc. 0 μg/ml | Table 4, EPI Conc. 0.625 μg/ml
0.06 µg/mL: Table 1, EPI Conc. 10 μg/ml | Table 1, EPI Conc. 40 μg/ml | [1] | Table 2, EPI Conc. 10 μg/ml | Table 2, EPI Conc. 40 μg/ml | [2] | Table 4, EPI Conc. 10 μg/ml

D-Lysyl-β-N-(3,3-Dimethylbutyl)alanine 2-Naphthylamide Trifluoroacetate [Example 30]
4 µg/mL: Table 1, EPI Conc. 0 μg/ml | Table 1, EPI Conc. 0.625 μg/ml | Table 1, EPI Conc. 5 μg/ml | Table 1, EPI Conc. […] | Table 2, EPI Conc. 0 μg/ml | Table 2, EPI Conc. 0.625 μg/ml | Table 3, EPI Conc. 0 μg/ml | Table 3, EPI Conc. 0.625 μg/ml | Table 4, EPI Conc. 0 μg/ml | Table 4, EPI Conc. 0.625 μg/ml
0.03 µg/mL: Table 1, EPI Conc. 40 μg/ml | Table 2, EPI Conc. 10 μg/ml | Table 2, EPI Conc. 40 μg/ml | [2] | Table 4, EPI Conc. 5 μg/ml | Table 4, EPI Conc. 10 μg/ml | [4]
0.015 µg/mL: Table 3, EPI Conc. 10 μg/ml | Table 3, EPI Conc. 40 μg/ml | [3] | Table 4, EPI Conc. 40 μg/ml
0.25 µg/mL: Table 2, EPI Conc. 5 μg/ml | Table 3, EPI Conc. 5 μg/ml
2 µg/mL: Table 1, EPI Conc. 10 μg/ml
0.50 µg/mL: [1]
